Laboratory results from patent US6900234B1, “Synergistic therapeutic compositions and methods” (Pfizer, Inc., priority 1990, dated 2005).

Tests used:
Male Hartley guinea pigs = test: Mean arterial pressure lowering (AOC-MAP) in conscious sodium-depleted guinea pigs after i.v. dosing; format: in vivo, guinea pig; set-up: unit not given here
Procedure: Male Hartley guinea pigs weighing between 250 and 300 g were obtained from Charles River Laboratories, Lakeview, N.J. The guinea pigs were allowed to acclimate to their environment for at least two weeks. Then, they were placed on a low sodium diet (Purina Modified Guinea Pig Chow, no sodium added) for 14 days and were given injections of furosemide (Lasix® 2 mg/kg, i.m.) on three non-consecutive days. At least 24 hours prior to experimentation, the animals were anesthetized with xylazine (Rompun®, 10 mg/kg, s.c.) and ketamine (Vetalar®, 80 mg/kg, i.m.) and, using aseptic technique, cannulae (PE-50) were implanted into the aorta via the right carotid artery for direct measurement of mean arterial pressure (MAP). Cannulae (PE-50) were also placed into the left jugular vein for intravenous compound administration. Both catheters were exteriorized at the intrascapular region of the animal's back and flushed with a heparinized dextrose solution. To prevent the formation of clots, each cannula was filled with heparin at a concentration of 1000 units/ml. After surgery, an antibacterial, trimethoprim/sulfamethoxazole (Di-Trim®, 30 mg/kg, s.c.), was given to the animals. The animals were allowed to recover with water and no-sodium chow administered ad libitum. On the day of the experiment, each guinea pig was given an additional injection of furosemide (6 mg/kg, i.m.) to accelerate sodium loss and was placed in,a sound-proof, ventilated box with one-way glass for observation. Mean arterial pressure was monitored with a Statham 23DB strain gauge pressure transducer previously calibrated using a mercury manometer. The arterial pressure waveform and derived heart rate were continuously recorded on a Grass Model 7D osciliograph. Arterial pressure waveform samples were obtained approximately every 20 seconds using an IBM PS/2 model 30 computer equipped with a custom algorithm designed to calculate mean arterial pressure from the integrated waveform. Values were obtained for a period of at least one hour prior to and 2 hours (usually 4 hours) after dosing. The test compounds were infused intravenously followed by a 250 μl flush with heparinized dextrose solution.
Dose response curves for the renin inhibitor (RI) (0.3 to 3.0 mg/kg, i.v.) and captopril (0.03 to 1.0 mg/kg, i.v.) were obtained (n=4 to 8) in order to quantitate baseline responses to each drug. In experiments where the renin inhibitor and captopril were co-administered, the renin inhibitor was given first immediately followed by captopril. Doses of renin inhibitor and angiotensin converting enzyme inhibitor, when given together, were chosen on the basis of causing submaximal hypotensive effects. Therefore, the contributory effect of each drug could be quantitated by integration and compared to the expected effect to determine whether additive or synergistic responses had occurred.
Employing the procedure described above, the changes in mean arterial pressure (ΔMAP) for the renin inhibitor (RI), the ACE inhibitor (captopril) and the renin inhibitor (RI), plus the ACE inhibitor (captopril) were obtained for various doses and are shown in Table I, below. The AOC-MAP is the area over the dose response curve for each dose calculated using the trapezoidal method.
The data in Table I were obtained by averaging the Δ MAP of all animals for each dose prior to calculating the AOC-MAP. When the data contained in Table I was reviewed for the purpose of calculating the AOC-MAP by averaging the area over the dose response curve for each animal per dose, it was discovered that the AOC-MAP for 0.5 mg/kg RI plus 0.05 mg/kg captopril inadvertently reflected the data based on only three of the six subject test animals. Shown below in Table II are the AOC-MAP data for the experiments reported in Table I, which data is now the result of determining the area over the dose response curve for each animal per dose and averaging the AOC-MAP, as well as determining the standard deviation. […]

[1] = reported in Oldham et al., J. Cardiovasc. Pharmacol. 6: 672-677 (1984); cited from earlier work
[2] = Table III, 0.30 mg/kg i.v., average of the area for each animal per dose
[3] = Table III, 1.0 mg/kg i.v., average of the area for each animal per dose
[4] = Table I, 1.0 mg/kg i.v., ΔMAP of all animals averaged per dose before calculating the area
[5] = Table II, 1.0 mg/kg i.v., average of the area for each animal per dose

SMILES | AOC-MAP (Male Hartley guinea pigs; [2]) | AOC-MAP (Male Hartley guinea pigs; [3]) | AOC-MAP (Male Hartley guinea pigs; Table III, 3.0 mg/kg i.v., average of the area for each animal per dose) | AOC-MAP (Male Hartley guinea pigs; Table I, 0.3 mg/kg i.v., ΔMAP of all animals averaged per dose before calculating the area (trapezoidal)) | AOC-MAP (Male Hartley guinea pigs; [4]) | AOC-MAP (Male Hartley guinea pigs; Table I, 3.0 mg/kg i.v., ΔMAP of all animals averaged per dose before calculating the area) | AOC-MAP (Male Hartley guinea pigs; Table II, 0.3 mg/kg i.v., average of the area for each animal per dose) | AOC-MAP (Male Hartley guinea pigs; [5]) | AOC-MAP (Male Hartley guinea pigs; Table II, 3.0 mg/kg i.v., average of the area for each animal per dose) | AOC-MAP (Male Hartley guinea pigs; Table I, 0.03 mg/kg i.v., ΔMAP of all animals averaged per dose before calculating the area) | AOC-MAP (Male Hartley guinea pigs; Table I, 0.10 mg/kg i.v., ΔMAP of all animals averaged per dose before calculating the area) | AOC-MAP (Male Hartley guinea pigs; Table I, 0.30 mg/kg i.v., ΔMAP of all animals averaged per dose before calculating the area) | AOC-MAP (Male Hartley guinea pigs; Table II, 0.03 mg/kg i.v., average of the area for each animal per dose) | AOC-MAP (Male Hartley guinea pigs; Table II, 0.10 mg/kg i.v., average of the area for each animal per dose) | AOC-MAP (Male Hartley guinea pigs; Table II, 0.30 mg/kg i.v., average of the area for each animal per dose) | AOC-MAP (Male Hartley guinea pigs; Table III, 0.03 mg/kg i.v., average of the area for each animal per dose) | AOC-MAP (Male Hartley guinea pigs; Table III, 0.10 mg/kg i.v., average of the area for each animal per dose) | hypotensive effect of captopril injected during H77 infusion [1]
CCCCc1nc(Cl)c(CO)n1Cc1ccc(-c2ccccc2-c2nn[nH]n2)cc1 [Dup 753] | −125 | −549 | −1575 | – | – | – | – | – | – | – | – | – | – | – | – | – | – | –
CSCC(NC(=O)C(Cc1ccccc1)NC(=O)N1CCOCC1)C(=O)NC(CC1CCCCC1)C(O)C(=O)OC(C)C (stereo not drawn) [RI, [alpha-R[alpha-R*,beta-S*(S*,S*)]-alpha-hydroxy-beta-[[2-[[2-(4-morpholin-1-carboxamido)-1-oxo-3-phenylpropyl]amino[-3-methylthio-1-oxo-propyl]amino]-cyclohexanebutanoic acid, isopropyl ester] | – | – | – | −256 | −496 | −1829 | −310 | −568 | −1990 | – | – | – | – | – | – | – | – | –
C[C@H](CS)C(=O)N1CCC[C@H]1C(=O)O [captopril] | −826 | −3272 | – | – | −3272 | – | – | −3272 | – | −99 | −289 | −1263 | −96 | −283 | −1036 | −96 | −269 | small additional hypotensive effect
